This is an account of results in paper PMC9688159 (Cancers, 2022).

Where two headings read alike, the source gives them in different places. Square brackets hold non-standard residues; d marks the D form. Peptide text beside a SMILES is read from it. pGlu = O=C1CC[C@@H](C(=O)O)N1

Assay [1] deals with PANC-1, BxPC-3, Capan-1 cells and NHF. Format: cell-based, human. An excerpt: (§1) Pancreatic carcinoma cell lines, PANC-1 (ACC 783), BxPC-3 (ACC 760), and Capan-1 (ACC 244), were obtained from DSMZ (Braunschweig, Germany). Normal human fibroblasts (NHF; 106-05A) were purchased from Sigma-Aldrich (Poznan, Poland). PANC-1 and NHF cells were maintained in DMEM containing 10% fetal bovine serum (FBS) and 1% antibiotic solution. BxPC-3 and Capan-1 cells were maintained in […] with 15% FBS and 1% penicillin/streptomycin solution. Cells were regularly tested for mycoplasma contamination.
(§2) In all experiments, cells were seeded in 96-well plates at a density of 4 × 10^3 (PANC-1, BxPC-3), 5 × 10^3 (Capan-1), and 2 × 10^3 (NHF) cells per well. Plates were incubated for 24 h at 37 °C.
(§3) To evaluate the effect of each compound on cell viability, cells were treated with different concentrations (0–60 µM) of tested compounds for 24, 48, and 72 h. Next, 20 µL of MTS solution was added to each well. Plates were incubated for 2 h at 37 °C. The absorbance was measured at 490 nm. Untreated cells served as a negative control. The number of viable cells is directly proportional to the intensity of color produced. Cell viability is expressed as a percentage of control cells.

The subject of assay [2] is normal human fibroblasts (NHF). The experiment in a line: cell viability (MTS). The assay is classed as cell-based.
From the text: as §1, §2, §3
(§4) Next, the medium was removed and a fresh medium containing tested compounds (at a concentration of 0–60 µM) was added. Plates were incubated for a further 24 h. Next, 20 µL of MTS solution was added to each well, and incubation was started (for 2 h at 37 °C). The absorbance was measured at 490 nm. Untreated cells served as a negative control.

Assay [3] concerns BxPC-3 cells. The experiment in a line: cell viability (MTS). The assay is classed as cell-based, human.
From the text: as §1, §2, §3, §4

Another assay has as its system PANC-1 cells. The experiment in a line: cell viability (MTS). The assay is classed as cell-based, human.
From the text: as §1, §2, §3, §4

The test system of another assay is Capan-1 cells. The experiment in a line: cell viability (MTS). Format: cell-based, human.
From the text: as §1, §2, §3, §4

Assay [4] concerns PANC-1, BxPC-3 and NHF cells. The experiment in a line: cell migration (scratch assay), statements for several cell lines together. Format: cell-based, human. As to conditions: for effect on cell migration: scratch assay, 0-40 µM, 24 and 48 h. The protocol: In all experiments, cells were seeded in 24-well plates at a density of 7 × 10^3 (PANC-1, BxPC-3) and 4 × 10^3 (NHF) cells per well and incubated for 48 h. Next, clear lines were made using a sterile 10 μL pipette tip. The medium was carefully removed, and 500 µL of fresh medium was added to the cells. For evaluation of the effect of each compound on cell proliferation, cells were treated with different concentrations (0–40 µM) of tested compounds. Phase-contrast microscopic pictures were taken at 24, 48, and 72 h, and the area of the wound was measured using Image J software (National Institute of Health, V1.5, Bethesda, […], USA). […] Phase-contrast microscopic pictures were taken at 6 and 24 h. The cell migration rate was calculated by measuring the area of the wound at each timepoint. The measurements were performed using ImageJ software. The medium was not changed during the experiment. Due to its inability to form a confluent monolayer, cell migration was not evaluated for Capan-1 cells.

The target of assay [5] is T1, DRD1 (Rattus norvegicus, UniProt P18901). Briefly: biochemical.
Procedure: (§5) Rats were decapitated, and their brains and spinal cords were quickly removed. […] Briefly, the brains and spinal cords were homogenized in freshly prepared ice-cold Tris-HCl buffer (50 mM, pH 7.4) and centrifuged at 18,000 rpm for 20 min (4 °C). The resulting supernatant was removed while the pellet was taken up in the original volume of Tris-HCl buffer. The homogenate was further incubated at 37 °C for 30 min and again centrifuged. The received pellet was consequently suspended in 50 mM Tris-HCl (pH 7.4) buffer and kept until analysis at −80 °C.
(§6) In DRD1 displacement, the Tris-HCl buffer (pH 7.4) contained 120 mM NaCl, 5 mM KCl, 1 mM MgCl2, 2 mM CaCl2, and 1 µM mianserin. In DRD2 displacement, the Tris-HCl buffer (pH 7.4) was a mixture of 5 mM KCl, 2 mM MgCl2, 2 mM CaCl2, and 1 µM ketanserin. The incubation of tissue membranes was performed in the presence of the unlabeled ligands in increasing concentrations (10^−10–10^−5 M) at 35 °C for 45 min with [^3H]SCH-23390 and at 25 °C for 120 min with [^3H]spiperone. […] The experiment was performed in duplicate and repeated at least three times.
(§7) In the competition binding assays, the IC50 value was calculated using ‘one site competition’ fitting. The inhibitory activity was presented as a percentage of the specific binding observed.
Assay [6] addresses T2, DRD2 (Rattus norvegicus, UniProt P61169).
T2 construct: from tissue; host or cells: Wistar rat brain and spinal cord membranes
The experiment in a line: ligand-stimulated [35S]GTPγS binding (G-protein activity), membrane homogenates. The assay is classed as biochemical. As to conditions: for maximal G-protein efficacy (Emax): basal activity = 100%; for EC50: logarithm of EC50, read-out: potency (log EC50) (converted). Background: GTPγS resists hydrolysis and so accumulates on activated G proteins.

For assay [7], the system named is BxPC-3 cells. The experiment in a line: cell migration (scratch assay). Particulars: BxPC-3, after 24 h. Format: cell-based, human. Here is the method:
In all experiments, cells were seeded in 24-well plates at a density of 7 × 10^3 (PANC-1, BxPC-3) and 4 × 10^3 (NHF) cells per well and incubated for 48 h. Next, clear lines were made using a sterile 10 μL pipette tip. The medium was carefully removed, and 500 µL of fresh medium was added to the cells.
For evaluation of the effect of each compound on cell proliferation, cells were treated with different concentrations (0–40 µM) of tested compounds. Phase-contrast microscopic pictures were taken at 24, 48, and 72 h, and the area of the wound was measured using Image J software (National Institute of Health, V1.5, Bethesda, MA, USA).
The cell migration rate was calculated by measuring the area of the wound at each timepoint. The measurements were performed using ImageJ software. The medium was not changed during the experiment. Due to its inability to form a confluent monolayer, cell migration was not evaluated for Capan-1 cells.

In assay [8] the target is T2, DRD2. The experiment in a line: [3H]spiperone competition binding (DRD2 displacement), membrane homogenates. As to conditions: 0.25 nM [3H]spiperone.
Procedure: as §5, §6, §7
Assay [9] concerns the target T1, DRD1. As to conditions: read-out: IC50, DRD1; rat spinal cord homogenates; 2 nM [3H]SCH-23390.
Procedure: as §5, §6, §7
The subject of another assay is GRP-Rs. On the set-up: method as in PMID 1850273. Particulars: compared with GRP; cited from earlier work.
Setting [10] is: Homo sapiens, Fibroblast, NHF, 24 h.
Setting [11] is: Homo sapiens, Fibroblast, NHF, 48 h.
Setting [12] is: Homo sapiens, Fibroblast, NHF, 72 h.
The mark [13] stands for this setting: rat spinal cord membrane homogenates.

T2 sequence (P61169 whole entry): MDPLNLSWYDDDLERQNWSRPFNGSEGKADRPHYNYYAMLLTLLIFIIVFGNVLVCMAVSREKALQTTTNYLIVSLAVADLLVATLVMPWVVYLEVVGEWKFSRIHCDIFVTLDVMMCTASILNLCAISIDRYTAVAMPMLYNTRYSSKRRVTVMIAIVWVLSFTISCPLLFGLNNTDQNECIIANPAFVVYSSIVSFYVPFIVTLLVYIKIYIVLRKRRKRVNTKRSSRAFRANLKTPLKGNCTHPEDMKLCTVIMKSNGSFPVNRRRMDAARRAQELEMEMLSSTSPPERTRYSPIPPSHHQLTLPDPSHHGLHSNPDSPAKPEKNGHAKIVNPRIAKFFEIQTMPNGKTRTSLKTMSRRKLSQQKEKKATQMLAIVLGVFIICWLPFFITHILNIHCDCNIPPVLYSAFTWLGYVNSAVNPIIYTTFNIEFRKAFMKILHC
T1 sequence (P18901 whole entry): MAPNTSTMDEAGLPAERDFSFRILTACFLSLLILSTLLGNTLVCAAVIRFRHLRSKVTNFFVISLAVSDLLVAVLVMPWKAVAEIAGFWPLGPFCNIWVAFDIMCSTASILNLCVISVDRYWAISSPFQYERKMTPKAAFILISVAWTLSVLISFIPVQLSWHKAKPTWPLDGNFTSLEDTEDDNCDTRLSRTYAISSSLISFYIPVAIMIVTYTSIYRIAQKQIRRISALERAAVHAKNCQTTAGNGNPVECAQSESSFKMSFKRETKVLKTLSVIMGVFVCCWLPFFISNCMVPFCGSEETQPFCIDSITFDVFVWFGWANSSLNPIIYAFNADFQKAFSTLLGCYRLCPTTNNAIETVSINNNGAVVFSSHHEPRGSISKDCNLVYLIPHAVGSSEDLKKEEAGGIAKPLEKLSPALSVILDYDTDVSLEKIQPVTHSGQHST

For `NCCc1ccc(O)c(O)c1` [Dopamine], the “effect on cell viability” value in assay [1] (all tested cells) is on record as “increase in cell viability”. The IC50 (as a rule, the point on the concentration scale where inhibition reaches its midpoint) in [2] (setting [10]) is above 60 µM; in [2] (setting [11]), above 60 µM; in assay [2] (setting [12]) it was above 60 µM; in the assay with BxPC-3 cells [3] (Homo sapiens, BXPC-3, 24 h) it was above 60 µM; with BxPC-3 cells [3] (Homo sapiens, BXPC-3, 48 h), above 60 µM; in the assay with BxPC-3 cells [3] (Homo sapiens, BXPC-3, 72 h), above 60 µM. Further, the IC50 in the assay with PANC-1 cells (Homo sapiens, PANC-1, 24 h) was above 60 µM; in the assay on PANC-1 cells (Homo sapiens, PANC-1, 48 h) it was above 60 µM; with PANC-1 cells (Homo sapiens, PANC-1, 72 h), above 60 µM; with Capan-1 cells (Homo sapiens, CAPAN-1, 24 h), above 60 µM; in the assay with Capan-1 cells (Homo sapiens, CAPAN-1, 48 h), above 60 µM; in the assay on Capan-1 cells (Homo sapiens, CAPAN-1, 72 h) it was above 60 µM. Moreover, the “effect on cell migration” value in [4] is “did not significantly increase”.
Turning to `Nc1ccn([C@@H]2O[C@H](CO)[C@@H](O)C2(F)F)c(=O)n1` [Gemcitabine, gemcitabine], the IC50 in assay [2] (setting [10]) is above 60 µM; in assay [2] (setting [12]) it was 1.28 ± 0.1 µM; with BxPC-3 cells [3] (Homo sapiens, BXPC-3, 24 h), above 60 µM; in the assay with BxPC-3 cells [3] (Homo sapiens, BXPC-3, 48 h) it was 0.643 ± 0.05 µM; in the assay with BxPC-3 cells [3] (Homo sapiens, BXPC-3, 72 h), 0.296 ± 0.15 µM; in the assay on PANC-1 cells (Homo sapiens, PANC-1, 24 h), above 60 µM. Further, the IC50 in the assay with PANC-1 cells (Homo sapiens, PANC-1, 72 h) was 0.28 ± 0.031 µM; in the assay on Capan-1 cells (Homo sapiens, CAPAN-1, 24 h), above 60 µM; with Capan-1 cells (Homo sapiens, CAPAN-1, 72 h) it was 0.657 ± 0.13 µM. Further, the “effect on cell migration” value in assay [4] is recorded as “slower migration with increasing concentration”.
Regarding `O=c1[nH]c2ccccc2n1C1CCN(CCCC(c2ccc(F)cc2)c2ccc(F)cc2)CC1` [Pimozide, pimozide], the IC50 is 38.7 ± 1.37 µM in assay [2] (setting [10]); 28.7 ± 3.82 µM in [2] (setting [11]); 23.6 ± 0.92 µM in assay [2] (setting [12]); 21.7 ± 2.27 µM in the assay on BxPC-3 cells [3] (Homo sapiens, BXPC-3, 24 h); 16.1 ± 0.94 µM with BxPC-3 cells [3] (Homo sapiens, BXPC-3, 48 h); 17.8 ± 1.38 µM in the assay with BxPC-3 cells [3] (Homo sapiens, BXPC-3, 72 h). The IC50 with PANC-1 cells (Homo sapiens, PANC-1, 24 h) turned out to be 15.1 ± 1.51 µM; with PANC-1 cells (Homo sapiens, PANC-1, 48 h) it was 17 ± 1.08 µM; in the assay on PANC-1 cells (Homo sapiens, PANC-1, 72 h) it was 20.3 ± 2.02 µM; in the assay with Capan-1 cells (Homo sapiens, CAPAN-1, 24 h), 25.3 ± 3.11 µM; in the assay on Capan-1 cells (Homo sapiens, CAPAN-1, 48 h), 20.7 ± 1.3 µM; with Capan-1 cells (Homo sapiens, CAPAN-1, 72 h) it was 20 ± 1.79 µM. Moreover, the “effect on cell migration” value in [4] is recorded as “decreased with the increasing concentration”.
With `CSCC[C@H](NC(=O)[C@H](Cc1ccccc1)NC(=O)[C@H](Cc1c[nH]cn1)NC(=O)CNC(=O)[C@@H](NC(=O)[C@H](C)NC(=O)[C@H](Cc1c[nH]c2ccccc12)NC(=O)[C@H](CCC(N)=O)NC(=O)[C@@H]1CCCN1C(=O)[C@@H](NC(=O)[C@@H]1CCC(=O)N1)C(C)C)C(C)C)C(N)=O` [Ranatensin] ([pGlu]VPQWAVGHFM-NH2), the IC50 was above 10 µM against DRD1 [5]; above 60 µM in assay [2] (NHF, 48 h); above 60 µM in [2] (NHF, 72 h); above 60 µM in the assay on BxPC-3 cells [3] (BxPC-3, 48 h); above 60 µM in the assay on BxPC-3 cells [3] (BxPC-3, 72 h); above 60 µM in the assay on PANC-1 cells (PANC-1, 48 h). For the same molecule, the IC50 in the assay with PANC-1 cells (PANC-1, 72 h) was above 60 µM; with Capan-1 cells (Capan-1, 48 h), above 60 µM; with Capan-1 cells (Capan-1, 72 h), above 60 µM; at DRD2 [8] (rat brain membranes) it was 0.0127 µM; on DRD2 [8] (rat spinal cord homogenates) it was 0.0488 ± 0.00115 µM; on DRD1 [9] it was above 10 µM. Moreover, the “functional character at DRD2” value at DRD2 [6] (conclusion from binding and [35S]GTPγS assays) is “DRD2 agonist”. Moreover, the “maximal G-protein efficacy (Emax)” value on DRD2 [6] (rat brain membrane homogenates) is given as 124.1%; at DRD2 [6] (setting [13]), 119.8%. Further, the EC50 (usually the concentration giving half of the maximal effect) on DRD2 [6] (rat brain membrane homogenates) was 0.0184 µM; on DRD2 [6] (setting [13]), 0.78 µM. Further, the “Emax in presence of selective DRD2 antagonist risperidone” value is 101.5% at DRD2 [6] (rat brain, basal = 100%) and 100.0% on DRD2 [6] (rat spinal cord, basal = 100%). Also, the “Emax in presence of selective DRD1 antagonist SCH-39166” value at DRD2 [6] (rat spinal cord membranes, basal = 100%) stood at 117.4%. The “effect on cell viability” value in assay [1] (cancer cells, 24 h) was “lower viability compared to the untreated cells”; in [2] (NHF, longer exposure (48 and 72 h)), “reduction in fibroblast viability compared to untreated cells”; with PANC-1 cells (PANC-1, prolonged incubation (48 and 72 h)) it was “significant increase in PANC-1 cell viability”. For the same molecule, in the assay with Capan-1 cells (Capan-1, RAN only, 24 h), the “decrease in viability compared to the control” value was “around 20%”. Further, the “concentration with total wound closure” value with BxPC-3 cells [7] is on record as at least 20 µM. Besides, in the assay on GRP-Rs, the “affinity for GRP-Rs” value is “equal affinity for GRP-Rs to GRP itself”. Further, the “migration rate of DRD2-blocked cells” value in [4] (PANC-1 and BxPC-3, risperidone pretreated, 24 h) is recorded as “slower in comparison to cells treated with RAN alone”. For the same molecule, the “effect on cell migration” value in assay [4] is on record as “migrated at a similar rate to untreated cells”.
Consider `Cc1nc2n(c(=O)c1CCN1CCC(c3noc4cc(F)ccc34)CC1)CCCC2` [Risperidone], for which the “decrease in cell viability” value in assay [1] is reported as “up to 20%”. The “effect on cell viability” value in assay [2] is on record as “no effect”.
